These results are taken from patent publication US20230295142A1, “NOVEL COMPOUNDS AS HISTONE DEACETYLASE 6 INHIBITOR, AND PHARMACEUTICAL COMPOSITION COMPRISING THE SAME” (CHONG KUN DANG PHARMACEUTICAL CORP., priority 2020, published 2023).

The target in one test is HDAC6 human recombinant (Homo sapiens (Human), UniProt Q9UBN7). The test can be described thus: HDAC6 enzyme activity inhibition (fluorimetric, in vitro). In kind it is biochemical. The following applies: samples at 0.1, 1, 10, 100 and 1000 nM; 37° C. 60 minutes. The procedure:
(§1) A HDAC enzyme inhibitory capacity of a test material was measured by using HDAC1 Fluorimetric Drug Discovery Assay Kit (Enzolifesciences: BML-AK511) and HDAC6 human recombinant (Calbiochem: 382180). For a HDAC1 assay, samples were treated at a concentration of 100, 1000 and 10000 nM. For a HDAC6 assay, samples were treated at a concentration of 0.1, 1, 10, 100 and 1000 nM. After the above sample treatment, a reaction was continued at 37° C. for 60 minutes, treated with a developer, and subjected to reaction at 37° C. for 30 minutes, after which fluorescence intensity (Ex 390, Em 460) was measured by using FlexStatin3 (Molecular device).

For the next test, the target named is HDAC1 (Homo sapiens (Human), UniProt Q13547). The test can be described thus: HDAC1 enzyme activity inhibition (HDAC1 Fluorimetric Drug Discovery Assay Kit). In kind it is biochemical. The following applies: samples at 100, 1000 and 10000 nM; 37° C. 60 minutes. As to the method:
as §1

HDAC1, sequence (Q13547 whole entry): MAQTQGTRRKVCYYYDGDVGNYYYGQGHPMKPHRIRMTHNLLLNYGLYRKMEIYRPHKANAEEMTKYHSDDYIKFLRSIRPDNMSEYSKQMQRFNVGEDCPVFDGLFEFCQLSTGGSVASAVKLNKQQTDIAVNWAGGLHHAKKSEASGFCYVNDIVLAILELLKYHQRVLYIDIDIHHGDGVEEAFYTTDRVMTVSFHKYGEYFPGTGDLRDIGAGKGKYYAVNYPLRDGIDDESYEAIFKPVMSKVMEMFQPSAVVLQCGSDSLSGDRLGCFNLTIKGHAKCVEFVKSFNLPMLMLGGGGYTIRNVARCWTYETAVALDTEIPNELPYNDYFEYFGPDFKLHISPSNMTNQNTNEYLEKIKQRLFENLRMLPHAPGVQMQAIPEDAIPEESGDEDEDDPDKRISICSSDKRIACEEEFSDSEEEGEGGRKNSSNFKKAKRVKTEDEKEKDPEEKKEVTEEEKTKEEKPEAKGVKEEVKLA
HDAC6 human recombinant, sequence (Q9UBN7 whole entry): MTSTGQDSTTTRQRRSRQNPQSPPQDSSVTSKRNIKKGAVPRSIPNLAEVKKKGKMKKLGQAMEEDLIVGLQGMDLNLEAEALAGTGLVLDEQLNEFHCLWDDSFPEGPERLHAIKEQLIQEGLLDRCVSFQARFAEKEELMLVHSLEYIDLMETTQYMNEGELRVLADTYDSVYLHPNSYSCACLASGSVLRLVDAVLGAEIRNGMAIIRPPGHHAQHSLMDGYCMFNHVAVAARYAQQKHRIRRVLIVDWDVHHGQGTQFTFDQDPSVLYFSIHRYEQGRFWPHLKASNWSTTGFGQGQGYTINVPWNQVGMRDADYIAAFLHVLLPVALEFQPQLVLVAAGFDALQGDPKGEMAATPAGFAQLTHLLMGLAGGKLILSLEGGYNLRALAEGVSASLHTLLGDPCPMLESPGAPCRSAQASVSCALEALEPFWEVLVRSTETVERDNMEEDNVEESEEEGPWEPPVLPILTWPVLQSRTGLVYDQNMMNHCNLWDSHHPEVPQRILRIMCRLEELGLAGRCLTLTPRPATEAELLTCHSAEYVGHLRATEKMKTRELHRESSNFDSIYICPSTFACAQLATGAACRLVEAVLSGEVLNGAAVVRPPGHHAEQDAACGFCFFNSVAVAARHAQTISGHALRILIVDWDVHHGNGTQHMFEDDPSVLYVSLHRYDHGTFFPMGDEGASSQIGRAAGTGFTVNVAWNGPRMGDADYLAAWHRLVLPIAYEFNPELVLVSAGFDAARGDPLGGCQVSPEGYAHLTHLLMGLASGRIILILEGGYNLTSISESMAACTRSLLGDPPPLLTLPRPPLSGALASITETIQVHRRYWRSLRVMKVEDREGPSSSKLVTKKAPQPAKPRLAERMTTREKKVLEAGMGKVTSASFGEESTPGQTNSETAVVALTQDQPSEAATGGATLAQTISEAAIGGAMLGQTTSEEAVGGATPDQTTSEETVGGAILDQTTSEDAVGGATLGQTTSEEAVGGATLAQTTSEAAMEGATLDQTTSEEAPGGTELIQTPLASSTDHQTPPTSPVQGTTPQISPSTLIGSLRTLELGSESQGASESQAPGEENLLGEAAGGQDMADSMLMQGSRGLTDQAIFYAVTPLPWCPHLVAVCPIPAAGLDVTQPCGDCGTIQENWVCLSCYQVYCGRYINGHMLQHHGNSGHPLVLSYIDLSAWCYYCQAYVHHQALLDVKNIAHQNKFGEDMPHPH

Broadly, the IC50 is the midpoint of a concentration-inhibition curve. Take `CC1(C)C(=O)N(Cc2ccc(-c3nnc(C(F)F)o3)cn2)C(=O)N1c1ccc(-c2ccncc2)cc1` [Compound 26, 3-((5-(5-(difluoromethyl)-1,3,4-oxadiazol-2-yl)pyridin-2-yl)methyl)-5,5-dimethyl-1-(4-(pyridin-4-yl)phenyl)imidazolidin-2,4-dione]: the IC50 is 48 nM on HDAC6 human recombinant and more than 10000 nM against HDAC1.
Take `CC1(C)C(=O)N(Cc2ccc(-c3nnc(C(F)F)o3)cn2)C(=O)N1c1ccc(-c2cccnc2)cc1` [Compound 27, 3-((5-(5-(difluoromethyl)-1,3,4-oxadiazol-2-yl)pyridin-2-yl)methyl)-5,5-dimethyl-1-(4-(pyridin-3-yl)phenyl)imidazolidin-2,4-dione]: the concentration for half-maximal inhibition (IC50) at HDAC6 human recombinant was 55 nM; against HDAC1, more than 10000 nM.
As for `CC1(C)C(=O)N(Cc2ccc(-c3nnc(C(F)F)o3)cn2)C(=O)N1c1ccc(-c2cccc(F)c2)cc1` [Compound 28, 3-((5-(5-(difluoromethyl)-1,3,4-oxadiazol-2-yl)pyridin-2-yl)methyl)-1-(3′-fluoro-[1,1′-biphenyl]-4-yl)-5,5-dimethylimidazolidin-2,4-dione], the IC50 at HDAC6 human recombinant was 168 nM; against HDAC1 it was more than 10000 nM.
For `CC1(C)C(=O)N(Cc2ccc(-c3nnc(C(F)F)o3)cn2)C(=O)N1c1ccc(-c2ccccc2F)cc1` [Compound 29, 3-((5-(5-(difluoromethyl)-1,3,4-oxadiazol-2-yl)pyridin-2-yl)methyl)-1-(2′-fluoro-[1,1′-biphenyl]-4-yl)-5,5-dimethylimidazolidin-2,4-dione], the 50% inhibitory concentration (IC50) at HDAC6 human recombinant is 165 nM; against HDAC1 it was more than 10000 nM.
As to `CC(C)(C)OC(=O)n1ccc2c(N3C(=O)N(Cc4ccc(-c5nnc(C(F)F)o5)cn4)C(=O)C3(C)C)cccc21` [Compound 30, tert-butyl 4-(3-((5-(5-(difluoromethyl)-1,3,4-oxadiazol-2-yl)pyridin-2-yl)methyl)-5,5-dimethyl-2,4-dioxoimidazolidin-1-yl)-1H-indol-1-carboxylate], the IC50 at HDAC6 human recombinant is 578 nM; against HDAC1, more than 10000 nM.
Regarding `CC(C)(C)OC(=O)N1CCc2c1cccc2N1C(=O)N(Cc2ccc(-c3nnc(C(F)F)o3)cn2)C(=O)C1(C)C` [Compound 31, tert-butyl 4-(3-((5-(5-(difluoromethyl)-1,3,4-oxadiazol-2-yl)pyridin-2-yl)methyl)-5,5-dimethyl-2,4-dioxoimidazolidin-1-yl)indolin-1-carboxylate], the IC50 at HDAC6 human recombinant was 316 nM; at HDAC1, more than 10000 nM.
Take `CC1(C)C(=O)N(Cc2ccc(-c3nnc(C(F)F)o3)cn2)C(=O)N1c1cccc2[nH]ccc12` [Compound 32, 3-((5-(5-(difluoromethyl)-1,3,4-oxadiazol-2-yl)pyridin-2-yl)methyl)-1-(1H-indol-4-yl)-5,5-dimethylimidazolidin-2,4-dione]: the IC50 at HDAC6 human recombinant was 55 nM; on HDAC1, more than 10000 nM.
Turning to `CC1(C)C(=O)N(Cc2ccc(-c3nnc(C(F)F)o3)cn2)C(=O)N1c1cccc2c1CCN2` [Compound 33, 3-((5-(5-(difluoromethyl)-1,3,4-oxadiazol-2-yl)pyridin-2-yl)methyl)-1-(indolin-4-yl)-5,5-dimethylimidazolidin-2,4-dione], the values for the IC50 at HDAC6 human recombinant and on HDAC1 were 58 nM and more than 10000 nM, respectively.
With `CC1(C)C(=O)N(Cc2ccc(-c3nnc(C(F)F)o3)cn2)C(=O)N1c1cccc([N+](=O)[O-])c1` [Compound 34, 3-((5-(5-(difluoromethyl)-1,3,4-oxadiazol-2-yl)pyridin-2-yl)methyl)-5,5-dimethyl-1-(3-nitrophenyl)imidazolidin-2,4-dione], the half-inhibitory concentration (IC50) on HDAC6 human recombinant is 46 nM; against HDAC1, more than 10000 nM.
Regarding `CC1(C)C(=O)N(Cc2ccc(-c3nnc(C(F)F)o3)cn2)C(=O)N1c1cccc(N)c1` [Compound 35, 1-(3-aminophenyl)-3-((5-(5-(difluoromethyl)-1,3,4-oxadiazol-2-yl)pyridin-2-yl)methyl)-5,5-dimethylimidazolidin-2,4-dione], the IC50 at HDAC6 human recombinant was 52 nM; against HDAC1, more than 10000 nM.
As to `CC(=O)Nc1cccc(N2C(=O)N(Cc3ccc(-c4nnc(C(F)F)o4)cn3)C(=O)C2(C)C)c1` [Compound 36, N-(3-(3-((5-(5-(difluoromethyl)-1,3,4-oxadiazol-2-yl)pyridin-2-yl)methyl)-5,5-dimethyl-2,4-dioxoimidazolidin-1-yl)phenyl)acetamide], the IC50 is 35 nM on HDAC6 human recombinant and more than 10000 nM at HDAC1.
With `CC(=O)N1CCc2c1cccc2N1C(=O)N(Cc2ccc(-c3nnc(C(F)F)o3)cn2)C(=O)C1(C)C` [Compound 37, 1-(1-acetylindolin-4-yl)-3-((5-(5-(difluoromethyl)-1,3,4-oxadiazol-2-yl)pyridin-2-yl)methyl)-5,5-dimethylimidazolidin-2,4-dione], the IC50 on HDAC6 human recombinant is 68 nM; on HDAC1 it was more than 10000 nM.
